Measurements: patent publication US10835623B2, “Manganese-based chelate conjugates for molecular MR imaging” (The General Hospital Corporation, priority 2015, dated 2020)

Assays:
[1] = Relaxivity in PBS / Tris buffer / water (Bruker mq60 Minispec); type: physicochemical; details: 1.41 T, 37° C.
Description: (§1) NMR spectra were recorded on a 500 MHz Varian spectrometer at 25° C. unless otherwise noted. Chemical shifts are reported in δ (ppm). For ^1H and ^13C NMR spectra, the residual solvent peaks were used as internal reference except for ^13C NMR recorded in D2O where dioxane was used as the internal references (Fulmer, Organometallics 2010, 29, 2176.).^1 Relaxivity measurements were performed on a Bruker mq60 Minispec, 1.41 T and 37° C. Longitudinal (T1) relaxation was acquired via an inversion recovery experiment using 10 inversion times of duration ranging between 0.05×T1 and 5×T1; tranverse […] relaxation was measured using a […] spin-echo experiment. Relaxivity (r1,2) was determined from the slope of a plot of 1/T1,2 vs. [Mn] for at least 4 concentrations. The transverse (T2) relaxation times of ^17O were acquired at 11.7 T from the full-width at half-height of the H2^17O signal (Gale, Carvan, J. Am. Chem. Soc. 2013, 135, 18600). ^17O T2 relaxivity (r2^O) was calculated by dividing the Mn-imparted increase in 1/T2 relative to neat H2O (pH 3) by the Mn concentration in mM. 0.7-1.0 mL NMR samples were enriched with a 10 μL of 18% H2^17O.

[2] = tested on: plasma proteins such as serum albumin; assay: Relaxivity in human blood plasma; type: physicochemical; details: 1.41 T, 37° C.
Description: as §1
Incorporation of lipophilic functionality into the chelate-metal complexes promotes binding to plasma proteins such as serum albumin. This binding provides a change in relaxivity measured in human blood plasma compared to that measured in PBS. In most cases, a large (40-170%) increase in relaxivity (r1 or r2) is observed (Table 1).

[3] = read-out: Kd for HA; cited from earlier work

Substance	r1 in PBS [1]	r1 in human blood plasma [2]	Kd [3]
GAHWQFNALTVR	–	–	~1 µM
Na[Mn(PyC3A-5-hydrazide)] [Compound 25]	3.4 mM⁻¹ s⁻¹	5.2 mM⁻¹ s⁻¹	–
Na[Mn(PyC3A-3-ethyl ester)] [Compound 10]	2.7 mM⁻¹ s⁻¹	5.8 mM⁻¹ s⁻¹	–

The next lines start with results.

r1 in PBS [1]	r1 in human blood plasma [2]	Substance	Kd [3]
2.1 mM⁻¹ s⁻¹	5.7 mM⁻¹ s⁻¹	Na[Mn(PyC3A-5-hydroxymethyl)] [Compound 7]	–
2.5 mM⁻¹ s⁻¹	3.5 mM⁻¹ s⁻¹	Na[Mn(PyC3A-4-methoxy-3.5-dimethyl) [Compound 13]	–
3.1 mM⁻¹ s⁻¹	2.1 mM⁻¹ s⁻¹	Na[Mn(PyC3A-5-methyl ester)] [Compound 4]	–
